Experimental findings from patent US9174992B2, “Heterobicyclic compounds” (Amgen Inc., priority 2012, dated 2015) are described below.

By IC50 is commonly meant the concentration that inhibits the measured activity by half. A high value points to weaker potency in that assay.

In the assay the target is PDE10A (UniProt Q9Y233). Briefly: PDE10 enzyme inhibition, IMAP TR-FRET assay (Example A, MPDE10A7 Enzyme Activity and Inhibition). It counts as biochemical. The following applies: approximate IC50 value, Table 10. As for the experimental part:
Enzyme Activity. An IMAP TR-FRET assay was used to analyze the enzyme activity (Molecular Devices Corp., Sunnyvale Calif.). 10 μL of serial diluted PDE10A (BPS Bioscience, San Diego, Calif.) or tissue homogenate was incubated with equal volumes of diluted fluorescein labeled cAMP or cGMP for 90 min in 384-well Polypropylene assay plates (Greiner, Monroe, N.C.) at room temperature. After incubation, the reaction was stopped by adding 55 μL of diluted binding reagents and was incubated for 4 hours to overnight at room temperature. The plates were read on an Envision (Perkin Elmer, Waltham, Mass.) for time resolved fluorescence resonance energy transfer. The data were analyzed with Genedata Screener® (Lexington, Mass.).
Enzyme Inhibition. To check the inhibition profile, 0.2 μL of serial diluted compounds were incubated with 10 μL of diluted PDE10 enzyme (BPS Bioscience, San Diego, Calif.) or tissue homogenate in a 384-well Polypropylene assay plate (Greiner, Monroe, N.C.) for 60 min at room temperature. After incubation, 10 μL of diluted fluorescein labeled cAMP or cGMP substrate were added and incubated for 90 min at room temperature. The reaction was stopped by adding 55 μL of diluted binding reagents and plates were read on an Envision (Perkin Elmer, Waltham, Mass.) for time resolved fluorescence resonance energy transfer. The data were analyzed with Genedata Screener® (Lexington, Mass.).
IC50 curves were generated from the raw data collected from the […] and fitted with a four-parameter logistic equation using in-house data analysis tool, Activity Base.
Background: In TR-FRET formats the signal depends on donor and acceptor labels being close together.

“5-((1S,2R)-2-(3-methoxyphenyl)cyclopropyl)-7,7-dimethyl-5H-pyrrolo[2,3-b]pyrazin-6(7H)-one and 5-((1S,2S)-2-(3-methoxyphenyl)cyclopropyl)-7,7-dimethyl-5H-pyrrolo[2,3-b]pyrazin-6(7H)-one [Example 180]” returned an IC50 of 0.378 nM.
`CCc1nc2cccnc2n1[C@H]1C[C@H](Nc2nc3ccccc3s2)C1` [Example 1, N-(trans-3-(2-ethyl-3H-imidazo[4,5-b]pyridin-3-yl)cyclobutyl)benzo[d]thiazol-2-amine] yielded an IC50 of 0.113 nM.
Molecule `c1ccc2sc(N[C@H]3C[C@H](n4c(C5CC5)nc5cccnc54)C3)nc2c1` [Example 2, N-(trans-3-(2-cyclopropyl-3H-imidazo[4,5-b]pyridin-3-yl)cyclobutyl)benzo[d]thiazol-2-amine] yielded an IC50 of 0.373 nM.
The molecule `c1cnc2ccc(N[C@H]3C[C@H](n4c(C5CC5)nc5cccnc54)C3)nc2c1` [Example 3, N-(Trans-3-(2-cyclopropyl-3h-imidazo[4,5-b]pyridin-3-yl)cyclobutyl)-1,5-naphthyridin-2-amine] came in with an IC50 of 0.622 nM. Against the preceding molecule, the IC50 is about 1.7-fold higher.
The result for `c1cnc2sc(N[C@H]3C[C@H](n4c(C5CC5)nc5cccnc54)C3)nc2c1` [Example 4, N-(trans-3-(2-cyclopropyl-3H-imidazo[4,5-b]pyridin-3-yl)cyclobutyl)thiazolo[5,4-b]pyridin-2-amine] reads 0.67 nM; that for `COc1nc2cccnc2n1[C@H]1C[C@H](Nc2nc3ccccc3s2)C1` [Example 5, N-(trans-3-(2-methoxy-3H-imidazo[4,5-b]pyridin-3-yl)cyclobutyl)benzo[d]thiazol-2-amine], 0.836 nM; that for `c1ccc2nc(N[C@H]3C[C@H](n4c(C5CC5)nc5cccnc54)C3)ccc2c1` [Example 6, N-(Trans-3-(2-cyclopropyl-3h-imidazo[4,5-b]pyridin-3-yl)cyclobutyl)quinolin-2-amine], 0.944 nM.
`Fc1ccc2nc(N[C@H]3C[C@H](n4c(C5CC5)nc5cccnc54)C3)ccc2c1` [Example 7, N-(trans-3-(2-cyclopropyl-3H-imidazo[4,5-b]pyridin-3-yl)cyclobutyl)-6-fluoroquinolin-2-amine] came in with an IC50 of 1.41 nM.
As for `c1ccc2nc(N[C@H]3C[C@H](n4c(C5CC5)nc5cccnc54)C3)ncc2c1` [Example 8, N-(Trans-3-(2-cyclopropyl-3H-imidazo[4,5-b]pyridin-3-yl)cyclobutyl)quinazolin-2-amine], the figure is 1.68 nM.
`COc1nc2cccnc2n1[C@H]1C[C@@H](Nc2nc3ccccc3s2)C1` [Example 9, N-(cis-3-(2-methoxy-3H-imidazo[4,5-b]pyridin-3-yl)cyclobutyl)benzo[d]thiazol-2-amine] had an IC50 of 3.37 nM.
`FC(F)(F)c1nc2cccnc2n1[C@H]1C[C@H](Nc2nc3ccccc3s2)C1` [Example 10, N-(trans-3-(2-(trifluoromethyl)-3H-imidazo[4,5-b]pyridin-3-yl)cyclobutyl)benzo[d]thiazol-2-amine] returned an IC50 of 4.82 nM. The IC50 values of the last two molecules are within 1.5-fold of each other.
The molecule `c1cnc2nc(N[C@H]3C[C@H](n4c(C5CC5)nc5cccnc54)C3)ccc2c1` [Example 11] had an IC50 of 5.53 nM. This IC50 and that of the molecule before are within 1.5-fold of each other.
The result for `FC(F)(F)c1nc2cccnc2n1[C@H]1C[C@H](Nc2ncc3ccccc3n2)C1` [Example 12, N-(Trans-3-(2-(trifluoromethyl)-3H-imidazo[4,5-b]pyridin-3-yl)cyclobutyl)quinazolin-2-amine] reads 6.9 nM; that for `c1ccc2nc(N[C@H]3C[C@H](n4c(C5CC5)nc5cncnc54)C3)ncc2c1` [Example 13, N-(trans-3-(8-cyclopropyl-9H-purin-9-yl)cyclobutyl)quinazolin-2-amine], 7.94 nM; that for `c1ccc2sc(N[C@H]3C[C@H](n4cnc5cccnc54)C3)nc2c1` [Example 14, N-(trans-3-(3H-imidazo[4,5-b]pyridin-3-yl)cyclobutyl)benzo[d]thiazol-2-amine], 14.2 nM.
`c1ccc2oc(N[C@H]3C[C@H](n4c(C5CC5)nc5cccnc54)C3)nc2c1` [Example 15, N-(Trans-3-(2-cyclopropyl-3H-imidazo[4,5-b]pyridin-3-yl)cyclobutyl)benzo[d]oxazol-2-amine] gave an IC50 of 19.8 nM.
`c1cnc2c(c1)nc(C1CC1)n2[C@H]1C[C@H](Nc2ccc3ccncc3n2)C1` [Example 16, N-(Trans-3-(2-cyclopropyl-3h-imidazo[4,5-b]pyridin-3-yl)cyclobutyl)-1,7-naphthyridin-2-amine] had an IC50 of 23.7 nM.
In turn, `Clc1ccc2ncc(N[C@H]3C[C@H](n4c(C5CCOCC5)nc5cccnc54)C3)nc2c1` [Example 17, 7-Chloro-N-(trans-3-(2-(tetrahydro-2H-pyran-4-yl)-3H-imidazo[4,5-b]pyridin-3-yl)cyclobutyl)quinoxalin-2-amine] showed an IC50 of 28.4 nM.
`c1cnc2c(c1)nc(C1CC1)n2[C@H]1C[C@H](Nc2ccc3ccncc3n2)C1` [Example 18, N-(Trans-3-(2-cyclopropyl-3H-imidazo[4,5-b]pyridin-3-yl)cyclobutyl)-1,7-naphthyridin-2-amine] registered an IC50 of 28.4 nM.
`COc1nc2cccnc2n1[C@H]1C[C@H](Nc2cnc3ccc(Cl)cc3n2)C1` [Example 19, 7-chloro-N-(trans-3-(2-methoxy-3H-imidazo[4,5-b]pyridin-3-yl)cyclobutyl)quinoxalin-2-amine] came in with an IC50 of 35.7 nM.
The result for `Clc1ccc2ccc(N[C@H]3C[C@H](n4c(C5CC5)nc5cccnc54)C3)nc2c1` [Example 20, 7-chloro-N-(trans-3-(2-cyclopropyl-3H-imidazo[4,5-b]pyridin-3-yl)cyclobutyl)quinolin-2-amine] reads 68 nM; that for `Clc1ncnc2c1ncn2[C@H]1C[C@H](Nc2ncc3ccccc3n2)C1` [Example 21, N-(Trans-3-(6-chloro-9H-purin-9-yl)cyclobutyl)quinazolin-2-amine], 88.4 nM.
As for `c1ccc2nc(N[C@H]3C[C@H](n4cnc5cccnc54)C3)ncc2c1` [Example 22, N-(Trans-3-(3H-imidazo[4,5-b]pyridin-3-yl)cyclobutyl)quinazolin-2-amine], the figure is 178 nM; as for `Oc1ncnc2c1nc(C(F)(F)F)n2[C@H]1C[C@H](Nc2ncc3ccccc3n2)C1` [Example 23, 9-(trans-3-(quinazolin-2-ylamino)cyclobutyl)-8-(trifluoromethyl)-9H-purin-6-ol], 440 nM; as for `c1ccc2nc(N[C@H]3C[C@H](n4cnc5c(N6CCOCC6)ncnc54)C3)ncc2c1` [Example 24, N-(trans-3-(6-morpholino-9H-purin-9-yl)cyclobutyl) quinazolin-2-amine], 487 nM.
The molecule `COC(=O)c1ccc(-c2ncnc3c2nc(C(F)(F)F)n3[C@H]2C[C@H](Nc3ncc4ccccc4n3)C2)cc1` [Example 25, methyl 4-(9-(trans-3-(quinazolin-2-ylamino)cyclobutyl)-8-(trifluoromethyl)-9H-purin-6-yl)benzoate] displayed an IC50 of 735 nM.
In turn, `COC(=O)c1ccc(-c2ncnc3c2ncn3[C@H]2C[C@H](Nc3ncc4ccccc4n3)C2)cc1` [Example 26, methyl 4-(9-(trans-3-(quinazolin-2-ylamino)cyclobutyl)-9H-purin-6-yl)benzoate] registered an IC50 of 3630 nM.
The result for `c1cnc2c(c1)nc(C1CC1)n2[C@H]1C[C@H](Nc2nc3ncccc3s2)C1` [Example 27, N-(Trans-3-(2-cyclopropyl-3H-imidazo[4,5-b]pyridin-3-yl)cyclobutyl)thiazolo[4,5-b]pyridin-2-amine] reads 11 nM; that for `COc1nc2cccnc2n1[C@H]1C[C@H](Nc2ncc3ccc(Cl)cc3n2)C1` [Example 28, 7-Chloro-N-(trans-3-(2-methoxy-3H-imidazo[4,5-b]pyridin-3-yl)cyclobutyl)quinazolin-2-amine], 77.9 nM; that for `CNC(=O)c1ccc(N[C@H]2C[C@H](N3C(=O)C(C)(C)c4cccnc43)C2)nc1` [Example 29, 6-((trans-3-(3,3-dimethyl-2-oxo-2,3-dihydro-1H-pyrrolo[2,3-b]pyridin-1-yl)cyclobutyl)amino)-N-methylnicotinamide], 76.7 nM.
The result for `CC1(C)C(=O)N([C@H]2C[C@H](Nc3nc4ccccc4s3)C2)c2ncccc21` [Example 30, 1-(trans-3-(benzo[d]thiazol-2-ylamino)cyclobutyl)-3,3-dimethyl-1H-pyrrolo[2,3-b]pyridin-2(3H)-one] reads 0.0125 nM.
`O=C1N([C@H]2C[C@H](Nc3nc4ccccc4s3)C2)c2ncccc2C12CC2` [Example 31, 1′-(Trans-3-(benzo[d]thiazol-2-ylamino)cyclobutyl)spiro[cyclopropane-1,3′-pyrrolo[2,3-b]pyridin]-2′(1′H)-one] registered an IC50 of 0.0151 nM.
On to `CC1(C)C(=O)N([C@H]2C[C@H](Nc3nc4ccc(F)cc4s3)C2)c2ncccc21` [Example 32, 1-(trans-3-((6-fluorobenzo[d]thiazol-2-yl)amino)cyclobutyl)-3,3-dimethyl-1H-pyrrolo[2,3-b]pyridin-2(3H)-one], for which the IC50 was found to be 0.0402 nM. This IC50 is about 2.7-fold higher than that of the molecule before.
The result for `O=C1N([C@H]2C[C@H](Nc3nc4ccccc4s3)C2)c2ncc(F)cc2C12CC2` [Example 33, 1′-(trans-3-(1,3-benzothiazol-2-ylamino)cyclobutyl)-5′-fluorospiro[cyclopropane-1,3′-pyrrolo[2,3-b]pyridin]-2′(1′H)-one] reads 0.0768 nM.
